The results in this text go back to publication PMC11481279 (Europace, 2024).

Usually inhibition stands for the percentage by which the read-out fell short of the control.

SMILES strings stand for the structures.

The assay has as its target SARS-CoV-2 ORF 3a protein (Severe acute respiratory syndrome coronavirus 2, UniProt P0DTC3). Nature of the assay: cell-based. The note with it: read-out: % inhibition at 100 μM.
Take `CC(C)NC[C@@H](O)c1ccc(NS(C)(=O)=O)cc1` [D-Sotalol]: the inhibition at 100 µM stood at 20.6 ± 4.5%. Consider `CN(CCOc1ccc(NS(C)(=O)=O)cc1)CCc1ccc(NS(C)(=O)=O)cc1` [Dofetilide], for which the inhibition at 100 µM was found to be 65.1 ± 6.7%. Take `CCCCc1oc2ccc(NS(C)(=O)=O)cc2c1C(=O)c1ccc(OCCCN(CCCC)CCCC)cc1` [Dronedarone]: the inhibition at 100 µM is 45.4 ± 4.7%. For `CCCCCCCN(CC)CCCC(O)c1ccc(NS(C)(=O)=O)cc1` (stereo not shown) [Ibutilide], the inhibition at 100 µM was found to be 36.4 ± 6.6%.
